# Experimental data: article PMC6151825, “Identification of Novel Bisbenzimidazole Derivatives as Anticancer Vacuolar (H^+)-ATPase Inhibitors” (Molecules : A Journal of Synthetic Chemistry and Natural …, 2017)
# Assays:
# [1] = system: MDA-MB-468 cells; experiment: MTS cell viability assay, MDA-MB-468; format: cell-based, human; settings: for IC50: Homo sapiens, MDA-MB-468, triple-negative breast cancer cell line, 48 h exposure, MTS, read-out: IC50 ± SD, MDA-MB-468
# Excerpt: (§1) Our research group is extensively involved in studying the role of vacuolar (H^+)-ATPase in breast as well as ovarian cancer cell lines. We examined the antiproliferative activity of the novel bisbenzimidazole derivatives (2a–e) in selected human breast cancer cell lines, MDA-MB-231 (ATCC, HTB-26), MDA-MB-468 (ATCC, HTB-132), MCF-7 (ATCC, HTB-22), and the normal breast epithelial cell line, MCF10A. We also used the cisplatin-sensitive A2780, PA-1 (ATCC, CRL 1572), and the cisplatin-resistant Cis-A2780 ovarian cancer cell lines. A potent V-ATPase inhibitor, Bafilomycin A1 (Baf A1), was used as the positive control. We employed the CellTiter 96 AQueous One solution cell proliferation assay (MTS; Promega) to measure the in vitro cell viability of the cells.
# (§2) We studied the antiproliferative activity of an initial hit (compound V), and bisbenzimidazole analogs 2a–e in the selected human breast cancer cell lines MDA-MB-231 (ATCC, HTB-26), MDA-MB-468 (ATCC, HTB-132), MCF-7 (ATCC, HTB-22) and the normal breast epithelial cell line, MCF10A, and the ovarian cancer cell lines, A2780, Cis-A2780, and PA-1 (ATCC, CRL 1572). Human breast cancer cell lines and the human ovarian cancer cell line (PA-1) were purchased from ATCC (American Type Culture Collection, Manassas, VA, USA). The cisplatin-sensitive human ovarian carcinoma cell line, A2780, was obtained from Sigma-Aldrich. The cisplatin-resistant human ovarian cell line, Cis-A2780, was produced in our laboratory, as described in the literature. MDA-MB-231, MDA-MB-468, MCF7, and PA-1 were cultured in the MEM medium (Gibco—Life Technologies, Carlsbad, CA, USA). For the MCF-7 cell line, a final concentration of 0.01 mg/mL human recombinant insulin was added to the media. The normal breast epithelial cell line, MCF-10A, was cultured in complete MEBM (Lonza/Clonetics, Walkersville, MD, USA), as recommended by ATCC. A2780, Cis-A2780 cell lines were cultured in RPMI 1640 medium (Invitrogen, Carlsbad, CA, USA). All media were supplemented with 10% (v/v) heat-inactivated fetal bovine serum (Biowest LLC, Riverside, MO, USA), 100 U/mL penicillin G and 100 U/mL streptomycin (Sigma Aldrich, St. Louis, MO, USA). Cultures were maintained at 37 °C in a humidified atmosphere containing 5% CO2 and were passaged by trypsinization after reaching 80–90% confluence.
# (§3) CellTiter 96 AQueous One Solution cell proliferation assay (MTS) was used to measure the in vitro cell viability of cells, and the MTS purchased from Promega (Madison, WI, USA). Cells (5 × 10^3) were seeded into each well of 96-well plates and incubated overnight. Dimethyl Sulfoxide (DMSO) stock solutions of the compounds (V, 2a–e) were diluted in corresponding media and exposed to different concentrations for 48 h. All three independent experiments were performed in quadruplicates. Untreated cells were used as a negative control and data were presented as the mean ± standard deviation (S.D.). The absorbances at 492 nm were measured using a Microplate Reader (Synergy HT, Biotek Instruments, Winooski, VT, USA). The compound concentration that inhibited cell growth by 50% of the untreated control (IC50) was calculated from the dose response curves constructed by plotting percentages of cell viability versus drug concentrations using nonlinear regression analysis by GraphPad Prism Software 7 (GraphPad Software, San Diego, CA, USA).
# [2] = system: MDA-MB-231 cells; experiment: MTS cell viability assay, MDA-MB-231; format: cell-based; settings: Homo sapiens, breast cancer cell line, 48 h exposure, read-out: IC50 ± SD, MDA-MB-231
# Excerpt: as §1, §2, §3
# [3] = system: MCF7 cells; experiment: MTS cell viability assay, MCF7; format: cell-based; settings: Homo sapiens, breast cancer cell line, 48 h exposure, read-out: IC50 ± SD, MCF7
# Excerpt: as §1, §2, §3
# [4] = system: MCF10A cells; experiment: MTS cell viability assay, MCF10A normal breast epithelial cells; format: cell-based; settings: Homo sapiens, MCF-10A, normal breast epithelial cell line, 48 h exposure, read-out: IC50 ± SD, MCF10A
# Excerpt: as §1, §2, §3
# [5] = system: A2780 cells; experiment: MTS cell viability assay, A2780; format: cell-based; settings: Homo sapiens, cisplatin-sensitive ovarian cancer cell line, 48 h exposure, read-out: IC50 ± SD, A2780
# Excerpt: as §1, §2, §3
# [6] = system: Cis-A2780 cells; experiment: MTS cell viability assay, Cis-A2780; format: cell-based; settings: Homo sapiens, cisplatin-resistant ovarian cancer cell line, 48 h exposure, read-out: IC50 ± SD, Cis-A2780
# Excerpt: as §1, §2, §3
# [7] = system: PA-1 cells; experiment: MTS cell viability assay, PA-1; format: cell-based; settings: Homo sapiens, cisplatin-sensitive ovarian cancer cell line, 48 h exposure, read-out: IC50 ± SD, PA-1
# Excerpt: as §1, §2, §3
# [8] = system: V-ATPase; experiment: Proton pump activity, acridine orange fluorescence quenching in MDA-MB-231 cells; format: cell-based, human; settings: 20 min incubation, relative to untreated control
# Excerpt: Since our hit compound (V) has been identified by the literature known V-ATPases, we hypothesized that these newly synthesized bisbenzimidazole derivatives (2a–e) will work as proton pump inhibitors (PPIs). To neutralize the acidic microenvironment, PPIs have been used to target the V-ATPase pumps present on the cell membrane. […] Therefore, we selected efficacious anticancer agents for the proton pump activity. We performed the standard proton pump activity using the acridine orange (AO) fluorescence quenching method. We selected two highly efficacious compounds (2d and 2e) and our initial hit (V) for proton pump activity. Baf A1 is a known V-ATPase inhibitor and is used as a positive control. The proton pump activity of cells was measured as a decrease in the fluorescence intensity per min. The activity of cells in the presence of Baf A1 and the potent compounds (V, 2d, and 2e) was calculated as a percentage of the untreated control. The values represented are mean values of duplicate measurements (Figure 10).
# The proton pump activity was assessed by using the AO fluorescence quenching method. Bafilomycin A1 (Baf A1), AO, and nigericin were purchased from Sigma-Aldrich. Hank’s Balanced Salt Solution (HBSS) was purchased from Gibco-Life Technologies (Carlsbad, CA, USA). Human breast cancer MDA-MB-231 (ATCC, HTB-26) cells were washed twice with Hank’s Balanced Salt Solution (HBSS). The cells were re-suspended at a density of 5 × 10^6 cells per mL in the same buffer and placed on ice. H^+ uptake was initiated by the addition of MDA-MB-231 cells (10 μL; […]) to pre-warmed HBSS (2.4 mL) containing AO (6 μL; 30 μM) and placed in a cuvette. AO fluorescence was measured at an excitation wavelength of 495 nm and an emission wavelength of 540 nm using the LS-50B Luminescence Spectrometer (Perkin Elmer, Software: FL WinLab, Version 4.00.03). Nigericin (6 μL; 6 μM) was added to collapse the pH gradient and unquench the AO fluorescence (See Supplementary Figure S1: 1a and 1b). […] A decrease in the fluorescence intensities per min of Baf A1 and the potent compounds (V, 2d, and 2e) was calculated and is expressed as a percentage of the control (mean ± SD of two independent experiments) (Figure 10).
# Figure 10 Effect of V-ATPase inhibitors on proton pump activity. Cells (MDA-MB-231) were subjected to acridine orange (AO) fluorescence quenching assay in the presence and absence of Baf A1 (1 μM) and potent compounds (V, 2d, and 2e; 10 μM). Fluorescence intensity at an excitation of 495 nm and an emission of 540 nm was quantified. Decrease in fluorescence intensity per min was calculated as percentage relative to control (mean ± SD; n = 2).
SMILES,IC50 [1] [nM],IC50 [2] [nM],IC50 [3] [µM],IC50 [5] [µM],IC50 [6] [µM],melting point [°C],IC50 [4] [nM],IC50 [7] [µM],inhibition of the H^+-ATPase activity ([8]; 10 μM) [%],"times less toxic, MCF10A versus MDA-MB-468 ([1]; ratio of IC50 in normal MCF10A cells to IC50 in MDA-MB-468 cells) [times]",inhibition of the H^+-ATPase activity ([8]; 1 μM) [%]
"CN1CCN(c2ccc3nc(-c4ccc5nc(-c6ccc(OCCC(C)(C)C)cc6)[nH]c5c4)[nH]c3c2)CC1 [Compound 2e, 2'-(4-(3,3-Dimethylbutoxy)phenyl)-6-(4-methylpiperazin-1-yl)-1H,3'H-2,5'-bibenzo[d]imidazole]",40 ± 20,1580 ± 50,2.02 ± 0.12,2.77 ± 0.05,1.34 ± 0.14,247 to 248,1620 ± 140,2.87 ± 0.15,42,~40,–
"CO/C1=C\C(C)=C\[C@@H](C)[C@@H](O)[C@@H](C)C/C(C)=C/C=C/[C@H](OC)[C@@H]([C@@H](C)[C@@H](O)[C@H](C)[C@@]2(O)C[C@@H](O)[C@H](C)[C@@H](C(C)C)O2)OC1=O [Baf A1, Bafilomycin A1, reference compound]",–,26 ± 20,–,–,0.008 ± 0.01,–,36 ± 40,–,–,–,25
"CN(C)CCCOc1ccc(-c2nc3ccc(-c4nc5ccc(N6CCN(C)CC6)cc5[nH]4)cc3[nH]2)cc1 [Compound 2b, N,N-Dimethyl-3-(4-(6-(4-methylpiperazin-1-yl)-1H,3'H-[2,5'-bibenzo[d]imidazol]-2'-yl)phenoxy)propan-1-amine]",5830 ± 230,4770 ± 430,13.5 ± 2.14,11.8 ± 0.01,12.34 ± 0.02,171 to 172,2950 ± 150,5.83 ± 0.07,–,–,–
"CN(C)CCOc1ccc(-c2nc3ccc(-c4nc5ccc(N6CCN(C)CC6)cc5[nH]4)cc3[nH]2)cc1 [Compound 2c, N,N-Dimethyl-2-(4-(6-(4-methylpiperazin-1-yl)-1H,3'H-[2,5'-bibenzo[d]imidazol]-2'-yl)phenoxy)ethanamine]",1170 ± 360,750 ± 300,–,12.9 ± 0.42,10.7 ± 0.22,197 to 198,810 ± 100,7.78 ± 0.81,–,–,–

# Further compounds by falling IC50 [1], results first:
IC50 [1] [nM],IC50 [2] [nM],IC50 [3] [µM],IC50 [5] [µM],IC50 [6] [µM],melting point [°C],SMILES,IC50 [4] [nM],IC50 [7] [µM],inhibition of the H^+-ATPase activity ([8]; 10 μM) [%],"times less toxic, MCF10A versus MDA-MB-468 ([1]; ratio of IC50 in normal MCF10A cells to IC50 in MDA-MB-468 cells) [times]",inhibition of the H^+-ATPase activity ([8]; 1 μM) [%]
13400 ± 330,17600 ± 190,49.3 ± 2.76,26.5 ± 1.44,25.2 ± 0.32,165 to 166,"CN1CCC(Oc2ccc(-c3nc4ccc(-c5nc6ccc(N7CCN(C)CC7)cc6[nH]5)cc4[nH]3)cc2)CC1 [Compound 2a, 6-(4-Methylpiperazin-1-yl)-2'-(4-((1-methylpiperidin-4-yl)oxy)phenyl)-1H,3'H-2,5'-bibenzo[d]imidazole]",13400 ± 370,–,–,–,–
720 ± 80,1020 ± 80,9.33 ± 0.69,3.87 ± 0.09,3.95 ± 0.33,–,CCOc1ccc(-c2nc3cc(-c4nc5cc(N6CCN(C)CC6)ccc5[nH]4)ccc3[nH]2)cc1 [Compound V],1140 ± 130,1.7 ± 0.21,30,–,–
560 ± 50,2440 ± 330,22 ± 3.9,1.97 ± 0.19,3.03 ± 0.18,208 to 209,"COCCOc1ccc(-c2nc3ccc(-c4nc5ccc(N6CCN(C)CC6)cc5[nH]4)cc3[nH]2)cc1 [Compound 2d, 2'-(4-(2-Methoxyethoxy)phenyl)-6-(4-methylpiperazin-1-yl)-1H,3'H-2,5'-bibenzo[d]imidazole]",1550 ± 40,3.09 ± 0.03,14,–,–
